According to patent publication US7407966B2, “Thienopyridinone compounds and methods of treatment” (Epix Delaware, Inc., priority 2004, dated 2008):

molecular target: 5-HT4e receptor (Homo sapiens, UniProt Q13639); assay: 5-HT4e receptor binding affinity assay; details: binding affinity to 5-HT4e receptors
Description: Compounds of the invention synthesized above and their binding affinity to 5-HT4e receptors was determined.

Chain of 5-HT4e receptor (Q13639 1-378 isoform Q13639-5): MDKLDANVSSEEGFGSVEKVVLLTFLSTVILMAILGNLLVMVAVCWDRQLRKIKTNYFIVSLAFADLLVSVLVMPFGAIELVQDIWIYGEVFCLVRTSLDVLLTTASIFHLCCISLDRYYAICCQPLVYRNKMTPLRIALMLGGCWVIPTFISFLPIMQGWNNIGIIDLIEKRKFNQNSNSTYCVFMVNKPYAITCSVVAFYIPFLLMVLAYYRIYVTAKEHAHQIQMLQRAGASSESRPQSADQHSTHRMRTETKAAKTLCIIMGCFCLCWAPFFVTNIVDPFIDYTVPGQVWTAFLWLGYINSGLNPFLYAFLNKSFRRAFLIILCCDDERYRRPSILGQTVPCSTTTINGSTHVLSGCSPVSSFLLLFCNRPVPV

Compound	Ki
CCN1CCC(NC(=O)c2c(O)c3ccsc3n(C(C)C)c2=O)CC1 [Example 1, 6,7-Dihydro-N-(1-ethylpiperidin-4-yl)-4-hydroxy-7-isopropyl-6-oxothieno[2,3-b]pyridine-5-carboxamide]	81 nM
CCCN1CCC(NC(=O)c2c(O)c3ccsc3n(C(C)C)c2=O)CC1 [Example 2, 6,7-Dihydro-4-hydroxy-7-isopropyl-6-oxo-N-(1-propylpiperidin-4-yl)thieno[2,3-b]pyridine-5-carboxamide]	33 nM
CCCCN1CCC(NC(=O)c2c(O)c3ccsc3n(C(C)C)c2=O)CC1 [Example 3, N-(1-Butylpiperidin-4-yl)-6,7-dihydro-4-hydroxy-7-isopropyl-6-oxothieno[2,3-b]pyridine-5-carboxamide]	47 nM
CC(C)n1c(=O)c(C(=O)NC2CCN(CCCO)CC2)c(O)c2ccsc21 [Example 4, 6,7-Dihydro-4-hydroxy-N-(1-(3-hydroxypropyl)piperidin-4-yl)-7-isopropyl-6-oxothieno[2,3-b]pyridine-5-carboxamide]	31 nM
CCCCCN1CCC(NC(=O)c2c(O)c3ccsc3n(C(C)C)c2=O)CC1 [Example 8, 6,7-Dihydro-4-hydroxy-7-isopropyl-6-oxo-N-(1-pentylpiperidin-4-yl)thieno[2,3-b]pyridine-5-carboxamide]	47 nM
CCCN1CCC(NC(=O)c2c(O)c3ccsc3n(CC)c2=O)CC1 [Example 9, 6,7-Dihydro-7-ethyl-4-hydroxy-6-oxo-N-(1-propylpiperidin-4-yl)thieno[2,3-b]pyridine-5-carboxamide]	31 nM

Continued by falling Ki, values first:

Ki	Compound
220 nM	CC(C)CN1CCC(NC(=O)c2c(O)c3ccsc3n(C(C)C)c2=O)CC1 [Example 6, 6,7-Dihydro-4-hydroxy-N-(1-isobutylpiperidin-4-yl)-7-isopropyl-6-oxothieno[2,3-b]pyridine-5-carboxamide]
100 nM	CC(C)n1c(=O)c(C(=O)NC2CCN(CCc3ccccc3)CC2)c(O)c2ccsc21 [Example 7, 6,7-Dihydro-4-hydroxy-7-isopropyl-6-oxo-N-(1-phenethylpiperidin-4-yl)thieno[2,3-b]pyridine-5-carboxamide]
100 nM	CCn1c(=O)c(C(=O)NC2CCN(CCCO)CC2)c(O)c2ccsc21 [Example 10, 6,7-Dihydro-7-ethyl-4-hydroxy-N-(1-(3-hydroxypropyl)piperidin-4-yl)-6-oxothieno[2,3-b]pyridine-5-carboxamide]
62 nM	CC(C)n1c(=O)c(C(=O)NC2CCN(CC3CC3)CC2)c(O)c2ccsc21 [Example 5, N-(1-(Cyclopropylmethyl)piperidin-4-yl)-6,7-dihydro-4-hydroxy-7-isopropyl-6-oxothieno[2,3-b]pyridine-5-carboxamide]
